Marks after values point to notes of the source that are not given here.
Key:
Type in all cases: cell-based
[1] = tested on: F. nucleatum; assay: Multi-species biofilm composition: absolute abundance of F. nucleatum; details: mean±SD n=3
Procedure: (§1) Biofilms are grown vertically on Calcium Deficient Hydroxyapatite (CAD-HA) disks (Hitemco Medical, Old Bethpage, USA) using the Amsterdam Active Adhesion model. Biofilms are allowed to establish during 24 h (37° C., 170 rpm) under micro-aerophilic conditions (6% O2, 7% CO2, 7% H2, 80% N2). After this 24 h, disks are rinsed 3 times a day for 3 minutes (RT, 250 rpm), for 3 consecutive days, by transferring the lid containing the disks to a new 24-well plate containing 2 mL/well of the appropriate substrate solution. As a negative control, PBS (pH 5.7) without substrate supplementation is used. After each rinsing step, disks are shortly dip-rinsed in a new 24-well plate containing fresh modified BHI medium (2 mL/well) to remove remaining substrate traces. Subsequently, the lid is transferred to another 24-well plate containing fresh modified BHI medium (2 mL/well), followed by incubation (micro-aerophilic, 37° C., 170 rpm) until the next rinsing step.
(§2) NADM, N-acetyl-D-glucosamine (“NADG”) and D-(+)-mannose are selected to determine their effects on multi-species biofilm composition. […] decrease in absolute numbers in at least four of the pathogenic bacterial species tested in the assay, compared to the control, the results of which are described in Table 1 below. Absolute abundances of bacterial species are shown as mean±SD (n=3) logarithmic values of the genome equivalents per millilitre (log(Geq/mL)).

[2] = tested on: human oral keratinocytes (HOK-18A); assay: Inflammatory mediator gene expression in keratinocytes exposed to substrate-treated biofilms; details: relative to control (=1), geometric mean (95% C.I.) n=3
Procedure: Cultures of immortalized human oral keratinocytes (HOK-18A) are grown. The relative inflammatory potential of the substrate-treated multi-species biofilms is evaluated by analyzing the expression of five inflammatory mediator genes in human oral keratinocytes (HOKs) exposed to the substrate-treated biofilms. […] The IL-8 levels in the cellular supernatant are determined as well. RNA is converted to cDNA and relative expression of inflammatory mediator genes is determined as described above with respect to the cellular housekeeping gene (3-actin.
In HOKs exposed to substrate-treated (substrate concentrations of 1 M) multi-species biofilms, mostly decreases in inflammatory mediator gene expression are observed and measured via SYBR RT-qPCR, the results of which are detailed in Table 6.
All substrates are dissolved in PBS at a concentration of 1 M (upper part) or 1% (w/v) (lower part). Values between 0 and 1 represent relative downregulation, values >1 represent relative upregulation. […] For such values, statistically significant differences between two experimental conditions are marked with ‘#1’ (vs. NADM), ‘#2’ (vs. NADG), ‘#3’ (vs. D-(+)-mannose) (P<0.05).

[3] = tested on: S. mutans; assay: Multi-species biofilm composition: absolute abundance of S. mutans; details: mean±SD n=3
Procedure: as §1
(§3) NADM, N-acetyl-D-glucosamine (“NADG”) and D-(+)-mannose are selected to determine their effects on multi-species biofilm composition. Repeated rinsing of the biofilms with the substrates at a concentration of 1M results in a significant decrease in absolute numbers in at least four of the pathogenic bacterial species tested in the assay, compared to the control, the results of which are described in Table 1 below. Absolute abundances of bacterial species are shown as mean±SD (n=3) logarithmic values of the genome equivalents per millilitre (log(Geq/mL)).

[4] = tested on: P. intermedia virulence genes; assay: Multi-species biofilm virulence gene expression, SYBR RT-qPCR: P. intermedia; details: for Fold Change in virulence gene expression: DnaJ / Fold Change in virulence gene expression: DnaK / Fold Change in virulence gene expression: ECF / Fold Change in virulence gene expression: GroES / Fold Change in virulence gene expression: HtpG / Fold Change in virulence gene expression: KpsD / Fold Change in virulence gene expression: adpc / Fold Change in virulence gene expression: clpB / Fold Change in virulence gene expression: inpA / Fold Change in virulence gene expression: phg: relative to control (=1), 2^-ΔΔCt, geometric mean n=3
Procedure: as §1
(§4) The expression of 33 virulence genes from 4 periodontal pathogens is analysed to evaluate the relative virulence of the substrate-treated biofilms. For all three substrates, virulence gene expression is determined relatively to the control, and these values are also compared between substrates when this is relevant (Tables 5a-5d).

[5] = tested on: A. naeslundii; assay: Multi-species biofilm composition: absolute abundance of A. naeslundii; details: mean±SD n=3
Procedure: as §1, §3

[6] = tested on: S. gordonii; assay: Multi-species biofilm composition: absolute abundance of S. gordonii; details: mean±SD n=3
Procedure: as §1, §3

[7] = tested on: S. oralis; assay: Multi-species biofilm composition: absolute abundance of S. oralis; details: for Absolute abundance S. oralis: mean±SD n=3
Procedure: as §1, §2

[8] = tested on: A. actinomycetemcomitans virulence genes; assay: Multi-species biofilm virulence gene expression, SYBR RT-qPCR: A. actinomycetemcomitans; details: for Fold Change in virulence gene expression: aae / Fold Change in virulence gene expression: apaH / Fold Change in virulence gene expression: cdtB / Fold Change in virulence gene expression: emaA / Fold Change in virulence gene expression: flp / Fold Change in virulence gene expression: ltxA / Fold Change in virulence gene expression: omp29 / Fold Change in virulence gene expression: omp100 / Fold Change in virulence gene expression: orf859 / Fold Change in virulence gene expression: pgA / Fold Change in virulence gene expression: vapA / Fold Change in virulence gene expression: vppA: relative to control (=1), 2^-ΔΔCt, geometric mean n=3
Procedure: as §1, §4

[9] = tested on: P. gingivalis; assay: Multi-species biofilm composition: absolute abundance of P. gingivalis; details: mean±SD n=3
Procedure: as §1, §2

[10] = tested on: S. sanguinis; assay: Multi-species biofilm composition: absolute abundance of S. sanguinis; details: mean±SD n=3
Procedure: as §1, §2

[11] = biofilm rinsed with substrate 1%
[12] = biofilm rinsed with substrate 1M

CC(=O)N[C@H]1C(O)O[C@H](CO)[C@@H](O)[C@@H]1O (stereo partly drawn) [NADG, N-acetyl-D-glucosamine, reference compound]
Absolute abundance Fn (F. nucleatum) ([1]; substrate 1%(w/v) in PBS): 9.41 ± 0.19 log(Geq/mL)
Absolute abundance Fn (F. nucleatum) ([1]; substrate 1 M in PBS): 7.09 ± 0.30 log(Geq/mL)
Fold change in inflammatory mediator gene expression: IL-1β [2, 11]: 0.71 (0.38-1.33) fold
Fold change in inflammatory mediator gene expression: IL-6 [2, 11]: 0.73 (0.58-0.93) fold
Fold change in inflammatory mediator gene expression: IL-8 [2, 11]: 1.00 (0.78-1.27) fold
Fold change in inflammatory mediator gene expression: MMP-8 [2, 11]: 0.52 (0.17-1.60) fold
Fold change in inflammatory mediator gene expression: TNF-α [2, 11]: 0.71 (0.28-1.35) fold
Fold change in inflammatory mediator gene expression: IL-1β [2, 12]: 0.75 (0.55-1.02) fold
Fold change in inflammatory mediator gene expression: IL-6 [2, 12]: 0.57 (0.46-0.71) fold
Fold change in inflammatory mediator gene expression: IL-8 [2, 12]: 0.14 (0.06-0.36)* fold
Fold change in inflammatory mediator gene expression: MMP-8 [2, 12]: 1.28 (0.79-2.08) fold
Fold change in inflammatory mediator gene expression: TNF-α [2, 12]: 0.89 (0.59-1.34) fold
Absolute abundance S. mutans ([3]; substrate 1%(w/v) in PBS): 7.83 ± 0.23 log(Geq/mL)
Absolute abundance S. mutans ([3]; substrate 1 M in PBS): 8.95 ± 0.38 log(Geq/mL)
Relative P. intermedia virulence gene expression, downregulation ([4]; substrate 1%(w/v), D-(+)-mannose for 3 genes): unaffected
Fold Change in virulence gene expression: DnaJ ([4]; substrate 1%): 0.7 fold
Fold Change in virulence gene expression: DnaK ([4]; substrate 1%): 0.77 fold
Fold Change in virulence gene expression: ECF ([4]; substrate 1%): 0.48 fold
Fold Change in virulence gene expression: GroES ([4]; substrate 1%): 0.75 fold
Fold Change in virulence gene expression: HtpG ([4]; substrate 1%): 0.46 fold
Fold Change in virulence gene expression: KpsD ([4]; substrate 1%): 0.78 fold
Fold Change in virulence gene expression: adpc ([4]; substrate 1%): 0.67 fold
Fold Change in virulence gene expression: clpB ([4]; substrate 1%): 1.06 fold
Fold Change in virulence gene expression: inpA ([4]; substrate 1%): 0.53 fold
Fold Change in virulence gene expression: phg ([4]; substrate 1%): 0.69 fold
P. intermedia virulence gene expression, increases ([4]; substrate 1 M, range over genes): 2- to 20.3 fold
Fold Change in virulence gene expression: DnaJ ([4]; substrate 1M): 0.64 fold
Fold Change in virulence gene expression: DnaK ([4]; substrate 1M): 2.34 fold
Fold Change in virulence gene expression: ECF ([4]; substrate 1M): 20.32 fold
Fold Change in virulence gene expression: GroES ([4]; substrate 1M): 1.86 fold
Fold Change in virulence gene expression: HtpG ([4]; substrate 1M): 3.40 fold
Fold Change in virulence gene expression: KpsD ([4]; substrate 1M): 1.72 fold
Fold Change in virulence gene expression: adpc ([4]; substrate 1M): 2.65 fold
Fold Change in virulence gene expression: clpB ([4]; substrate 1M): 2.03 fold
Fold Change in virulence gene expression: inpA ([4]; substrate 1M): 4.52 fold
Fold Change in virulence gene expression: phg ([4]; substrate 1M): 0.57 fold
Absolute abundance An (A. naeslundii) ([5]; substrate 1%(w/v) in PBS): 7.71 ± 0.12 log(Geq/mL)
Absolute abundance An (A. naeslundii) ([5]; substrate 1 M in PBS): 6.52 ± 0.20 log(Geq/mL)
Absolute abundance S. gord. (S. gordonii) ([6]; substrate 1%(w/v) in PBS): 8.33 ± 0.06 log(Geq/mL)
Absolute abundance S. gord. (S. gordonii) ([6]; substrate 1 M in PBS): 9.38 ± 0.40 log(Geq/mL)
Absolute abundance S. oralis ([7]; substrate 1%(w/v) in PBS): 7.11 ± 0.14 log(Geq/mL)
Change in S. oralis numbers compared to the control ([7]; substrate 1 M): +1.0 log(Geq/mL)
Absolute abundance S. oralis ([7]; substrate 1 M in PBS): 7.97 ± 0.31*^, #1 log(Geq/mL)
Fold Change in virulence gene expression: aae ([8]; substrate 1% (w/v)): 1.55 fold
Fold Change in virulence gene expression: apaH ([8]; substrate 1% (w/v)): 0.73 fold
Fold Change in virulence gene expression: cdtB ([8]; substrate 1% (w/v)): 1.05 fold
Fold Change in virulence gene expression: emaA ([8]; substrate 1% (w/v)): 0.68 fold
Fold Change in virulence gene expression: flp ([8]; substrate 1% (w/v)): 0.54 fold
Fold Change in virulence gene expression: ltxA ([8]; substrate 1% (w/v)): 0.40 fold
Fold Change in virulence gene expression: omp29 ([8]; substrate 1% (w/v)): 0.77 fold
Fold Change in virulence gene expression: omp100 ([8]; substrate 1% (w/v)): 0.71 fold
Fold Change in virulence gene expression: orf859 ([8]; substrate 1% (w/v)): 1.99 fold
Fold Change in virulence gene expression: pgA ([8]; substrate 1% (w/v)): 0.72 fold
Fold Change in virulence gene expression: vapA ([8]; substrate 1% (w/v)): 0.65 fold
Fold Change in virulence gene expression: vppA ([8]; substrate 1% (w/v)): 0.28 fold
A. actinomycetemcomitans gene expression decrease: vppA ([8]; substrate 1%(w/v)): 3.6 fold
A. actinomycetemcomitans gene expression increase: aae ([8]; substrate 1%(w/v)): 1.5 fold
A. actinomycetemcomitans gene expression increase: orf859 ([8]; substrate 1%(w/v)): 2 fold
Upregulation of A. actinomycetemcomitans expression of flp ([8]; substrate 1 M): 2.4 fold
Fold Change in virulence gene expression: aae ([8]; substrate 1M): 0.24 fold
Fold Change in virulence gene expression: apaH ([8]; substrate 1M): 0.08 fold
Fold Change in virulence gene expression: cdtB ([8]; substrate 1M): 0.04 fold
Fold Change in virulence gene expression: emaA ([8]; substrate 1M): 0.29 fold
Fold Change in virulence gene expression: flp ([8]; substrate 1M): 2.40 fold
Fold Change in virulence gene expression: ltxA ([8]; substrate 1M): 0.01 fold
Fold Change in virulence gene expression: omp29 ([8]; substrate 1M): 0.19 fold
Fold Change in virulence gene expression: omp100 ([8]; substrate 1M): 0.03 fold
Fold Change in virulence gene expression: orf859 ([8]; substrate 1M): 0.13 fold
Fold Change in virulence gene expression: pgA ([8]; substrate 1M): 11.60 fold
Fold Change in virulence gene expression: vapA ([8]; substrate 1M): 1.00 fold
Fold Change in virulence gene expression: vppA ([8]; substrate 1M): 0.49 fold
Absolute abundance Pg (P. gingivalis) ([9]; substrate 1%(w/v) in PBS): 7.14 ± 0.28 log(Geq/mL)
Absolute abundance Pg (P. gingivalis) ([9]; substrate 1 M in PBS): 4.00 ± 0.39*^, ^#3 log(Geq/mL)
Absolute abundance S. sang. (S. sanguinis) ([10]; substrate 1%(w/v) in PBS): 8.4 ± 0.11 log(Geq/mL)
Absolute abundance S. sang. (S. sanguinis) ([10]; substrate 1 M in PBS): 8.11 ± 0.68 log(Geq/mL)
